Experimental data published in paper PMC4105520, “Effects of a novel cyclic RGD peptidomimetic on cell proliferation, migration and angiogenic activity in human endothelial cells” (Vascular Cell, 2014).

Legend:
[1] = in the same or very close concentration range as the anti-angiogenic activity; cited from earlier work
Experimental: In our experiments, the effects of cyclo[DKP-RGD] 1 on HUVEC activity were tested in resting conditions as well as in the presence of a culture medium enriched with growth factors known to promote angiogenesis such as VEGF, EGF, IGF-I and FGF2 or after addition of the pro-inflammatory chemokine IL-8, which has a key role in the regulation of pathological angiogenesis. According to our results, cyclo[DKP-RGD]

[2] = test system: HUVEC; assay: Proliferation assay, ELISA of BrdU incorporation; assay type: cell-based, human; settings: 24 h, data not shown
Experimental: To assess HUVEC proliferation, 1×10^4 cells were seeded in duplicate in a 96-well plate and cultured for 24 h without or with cyclo[DKP-RGD] 1 at different concentrations. Proliferation was then measured by a colorimetric immunoassay, based on the ELISA measurement of bromodeoxyuridine (BrdU) incorporation during DNA synthesis. The absorbance (ABS) of the samples was determined by means of a spectrophotometer (Model 680, Bio-Rad Laboratories, Hercules, CA, USA) with wavelength set at 450 nm, and finally expressed as the difference between BrdU positive and negative samples, expressed as Optical Density (O.D.).

[3] = test system: HUVEC; assay: Cell migration, Boyden chamber assay; assay type: cell-based, human; settings: for effect on spontaneous migration / effect on stimulated migration: 5 h at 37°C; for effect on stimulated migration: VEGF, EGF, IGF-I and FGF2 in bottom chamber
Experimental: Cell migration was measured by means of a Boyden chamber assay. Briefly, 1×10^5 HUVEC were seeded in the top well of the Boyden chamber, cyclo[DKP-RGD] 1 was added in the bottom or in the top compartment, and a 3 μm-pore cellulose nitrate filter was placed between the two compartments. Stimulated migration was assessed by putting VEGF, EGF, IGF-I, and FGF2 in the bottom chamber. After an incubation period of 5 h at 37°C, the filter was recovered, dehydrated, fixed, and finally stained with hematoxylin. Migration into the filter was quantified by measuring the distance (in μm) from the surface of the filter to the leading front of cells using an optical microscope (Axiolab, Carl Zeiss S.p.A. Milan, Italy).

[4] = test system: HUVEC; assay: Angiogenesis assay, network formation on Matrigel; assay type: cell-based, human; settings: 5 h
Experimental: To assess angiogenic activity, HUVEC 2.5×10^4 cells were seeded in a 24-well plate coated with 100 μl/well of Matrigel previously polymerized for 1 h at 37°C. […] 1 under either resting or stimulated conditions. In some experiments IL-8 (10 nM) was used as pro-angiogenic stimulus. Network formation was evaluated by phase‒contrast microscopy using a fluorescence microscope (Axiovert 40CFL, Carl Zeiss S.p.A. Milan, Italy). Network formation was finally quantified in terms of mean number of loops per field as topological parameters and the total length of the branches. For the purpose of the analysis, loops were defined as any complete ring formed by HUVEC, while open ramifications were considered as branches. The total branch length (pixels) and the number of loops were quantified using the ImageJ image analysis software (http://rsbweb.nih.gov/ij/).

[5] = test system: αv integrin subunit mRNA in HUVEC; assay: Real time PCR, mRNA of integrin subunit αv; assay type: cell-based, human; settings: 1 μM, 5 h, mean ± SD of 3 experiments; for αv mRNA, 2^-Δct ×10^2: GAPDH housekeeping
Experimental: (§1) Cells were treated for 5 h in the presence or absence of 1 μM cyclo[DKP-RGD] 1 in different growth conditions, as previously described. At the end of the treatment, RNA extraction was performed using the Qiazol lysis reagent. Primers were designed by using the “Primer3 input” software (http://frodo.wi.mit.edu/cgi-bin/primer3/primer3.cgi/primer3_www.cgi) and the specificity of each primer was controlled by the BLAST software (http://blast.ncbi.nlm.nih.gov) (Table 1). Real time PCR was performed as previously reported At the end of the reaction, a melting curve analysis was carried out to check for the presence of primer-dimers. Comparison of the expression of each gene was determined by using GAPDH as housekeeping gene. Each run was analyzed in duplicate and data are finally expressed as 2^-Δct.

[6] = test system: β3 integrin subunit mRNA in HUVEC; assay: Real time PCR, mRNA of integrin subunit β3; assay type: cell-based, human; settings: 1 μM, 5 h, mean ± SD of 3 experiments; for β3 mRNA, 2^-Δct ×10^2: GAPDH housekeeping
Experimental: as §1

[7] = test system: β5 integrin subunit mRNA in HUVEC; assay: Real time PCR, mRNA of integrin subunit β5; assay type: cell-based, human; settings: 1 μM, 5 h, mean ± SD of 3 experiments; for β5 mRNA, 2^-Δct ×10^2: GAPDH housekeeping
Experimental: as §1

[8] = test system: Akt phosphorylation in HUVEC; assay: Western blot analysis of Akt phosphorylation; assay type: cell-based, human; settings: 5 h
Experimental: Cells grown in 60-mm dishes were treated for 5 h with 1 μM cyclo[DKP-RGD] 1. The cells were then rinsed twice in ice-cold PBS and 200 μl of the cell lysis buffer (composition: 50 mM Tris–HCl pH 7.4, 1% v/v NP40, 0.25% w/v sodium deoxycholate, 1 mM phenylmethylsulphonyl-fluoride, 1 mM Na3VO4, 1 mM EDTA, 30 mM sodium pyrophosphate, 1 mM NaF, 1 mg/ml leupeptin, 1 mg/ml pepstatin A, 1 mg/ml aprotinin and 1 mg/ml microcystin) was added to the dishes. After scraping, cells were sonicated for 10 s, centrifuged at 12000 g for 5 min at 4°C and the amount of proteins in the supernatant was measured using the BCA protein assay. For western blot analysis, 20 μg of proteins were separated by 10% SDS–PAGE at 150 V for 2 h and blotted onto […] nitrocellulose membranes at 90 mA for 16 h. The membranes were first blocked for 2 h in TRIS buffered saline solution (TBST, composition: TRIS 10 mM, NaCl 150 mM, 0.1% Tween 20) plus 5% low fat dry milk (TBSTM) and then incubated with the appropriate antibody diluted 1:1000 in TBSTM, for 16 h at 4°C under gentle agitation. The membranes were rinsed three times in TBST and then incubated for 2 h at 21°C with the secondary antibody diluted 1:10000 in TBSTM. Membranes were then rinsed three times in TBST and luminescence was detected by using the appropriate kit, and densitometric analysis was performed as previously reported.

[9] = test system: HUVEC
[10] = test system: αvβ3 integrin; settings: read-out: IC50, inhibition of vitronectin binding to αvβ3 integrin; cited from earlier work
Excerpt: (§2) HUVEC represent a valid in vitro model which provides seminal insights into the cellular and molecular events leading to neovascularization in response to inflammation and hypoxia in cancer, ischemic events, and in embryogenesis. As anticipated in the introduction, integrins are key actors in angiogenesis and vascular homeostasis, acting as promoters of endothelial cell-matrix interactions. It has been recognized that pharmacological inhibition of the αvβ3 subtype suppresses angiogenesis in many experimental models and αvβ3 antagonists (i.e. antibodies, peptides and peptidomimeti ...

[11] = test system: αvβ5 integrin; settings: read-out: IC50, inhibition of vitronectin binding to αvβ5 integrin; cited from earlier work
Excerpt: as §2

[12] = test system: ovarian carcinoma IGROV-1; settings: cited from earlier work
[13] = test system: ovarian carcinoma SKOV3; settings: cited from earlier work
[14] = test system: human pancreatic carcinoma PANC-1; settings: cited from earlier work
[15] = test system: human pancreatic carcinoma MIA-PaCa2; settings: cited from earlier work
[16] = test system: human osteosarcoma U2-OS; settings: cited from earlier work
[17] = test system: HUVEC; assay: Cell viability by flow cytometry, annexin V/PI staining; settings: 24 h, mean ± SD, n = 4, P > 0.05 vs control

cyclo-[Arg-Gly-Asp-D-Phe-N(Me)-Val] (head to tail) [cilengitide]
cytotoxic activity [1]: exhibit cytotoxic activity

cyclo[DKP-RGD] [cyclo[DKP-RGD] 1]
effect on basal proliferation (BrdU incorporation) ([2]; basal conditions, up to 1×10^−5 M): did not significantly affect | effect on stimulated proliferation (BrdU incorporation) ([2]; with VEGF, EGF, IGF-I and FGF2, up to 1×10^−5 M): did not significantly affect | concentration of the peak of the bell-shaped effect on migration ([3]; Boyden chamber, not observed in the angiogenesis assay): about 1×10^−9 M | effect on spontaneous migration ([3]; compound in bottom chamber): increased | effect on stimulated migration ([3]; compound in bottom chamber): increased | effect on spontaneous migration ([3]; compound in top chamber together with cells): increased | effect on stimulated migration ([3]; compound in top chamber): decreased | effect on angiogenesis induced by IL-8 ([4]; IL-8 10 nM, P < 0.01 vs control): significantly and profoundly decreased | effect on angiogenesis (network formation: loops, branch length) ([4]; basal conditions): did not significantly affect | effect on angiogenesis induced by VEGF, EGF, IGF-I, and FGF2 ([4]; stimulated conditions, P < 0.01 vs control): significantly and profoundly decreased | αv mRNA, 2^-Δct ×10^2 ([5]; basal conditions): 6.59 ± 5.24 | αv mRNA, Ratio vs Control ([5]; basal conditions): 1.32 ± 0.57 | αv mRNA, 2^-Δct ×10^2 ([5]; with VEGF, EGF, IGF, and FGF): 15.09 ± 10.66 | αv mRNA, Ratio vs Control ([5]; with VEGF, EGF, IGF, and FGF): 1.28 ± 0.42 | β3 mRNA, 2^-Δct ×10^2 ([6]; basal conditions): 0.91 ± 0.76 | β3 mRNA, Ratio vs Control ([6]; basal conditions): 1.08 ± 0.27 | β3 mRNA, 2^-Δct ×10^2 ([6]; with VEGF, EGF, IGF, and FGF): 1.41 ± 1.07 | β3 mRNA, Ratio vs Control ([6]; with VEGF, EGF, IGF, and FGF): 1.43 ± 0.35 | β5 mRNA, 2^-Δct ×10^2 ([7]; basal conditions): 1.52 ± 1.34 | β5 mRNA, Ratio vs Control ([7]; basal conditions): 1.08 ± 0.07 | β5 mRNA, 2^-Δct ×10^2 ([7]; with VEGF, EGF, IGF, and FGF): 1.31 ± 1.13 | β5 mRNA, Ratio vs Control ([7]; with VEGF, EGF, IGF, and FGF): 1.34 ± 0.46 | phosphorylated Akt, % of control ([8]; basal conditions, 1×10^−6 M, n = 3, P = 0.001): 53.2 ± 7.9 % of control | phosphorylated Akt ([8]; basal conditions, 1×10^−6 M, n = 3, P = 0.001, control 16241.7 ± 1763.3): 8702.7 ± 2008.7 optical density arbitrary units | phosphorylated Akt ([8]; with VEGF, EGF, IGF-I, and FGF2, 1×10^−6 M, n = 3, P = 0.735, control 15406.0 ± 1218.8): 15174.7 ± 663.9 optical density arbitrary units | effect on percentage of viable, early apoptotic, late apoptotic/necrotic or necrotic cells [9]: did not affect | IC50 [10]: 4.5 ± 1.1 nM | IC50 [11]: 149 ± 25 nM | cytotoxic effects [12]: lack of cytotoxic effects | cytotoxic effects [13]: lack of cytotoxic effects | cytotoxic effects [14]: lack of cytotoxic effects | cytotoxic effects [15]: lack of cytotoxic effects | cytotoxic effects [16]: lack of cytotoxic effects | viable cells (ANX-/PI-) ([17]; basal conditions, 1×10^−6 M): 85.4 ± 3.4% | viable cells (ANX-/PI-) ([17]; with VEGF, EGF, IGF-I and FGF2, 1×10^−6 M): 86.8 ± 9.2%
